Measurements as given in patent publication US20240425490A1, “SULFAMIDE RIBONUCLEOTIDE REDUCTASE (RNR) INHIBITORS AND USES THEREOF” (Boundless Bio, Inc., priority 2021, published 2024).

Biological target: T1, RNR (RNR1:RNR2 1:1) (Homo sapiens, UniProt P23921)
T1 sequence (P23921 1-792): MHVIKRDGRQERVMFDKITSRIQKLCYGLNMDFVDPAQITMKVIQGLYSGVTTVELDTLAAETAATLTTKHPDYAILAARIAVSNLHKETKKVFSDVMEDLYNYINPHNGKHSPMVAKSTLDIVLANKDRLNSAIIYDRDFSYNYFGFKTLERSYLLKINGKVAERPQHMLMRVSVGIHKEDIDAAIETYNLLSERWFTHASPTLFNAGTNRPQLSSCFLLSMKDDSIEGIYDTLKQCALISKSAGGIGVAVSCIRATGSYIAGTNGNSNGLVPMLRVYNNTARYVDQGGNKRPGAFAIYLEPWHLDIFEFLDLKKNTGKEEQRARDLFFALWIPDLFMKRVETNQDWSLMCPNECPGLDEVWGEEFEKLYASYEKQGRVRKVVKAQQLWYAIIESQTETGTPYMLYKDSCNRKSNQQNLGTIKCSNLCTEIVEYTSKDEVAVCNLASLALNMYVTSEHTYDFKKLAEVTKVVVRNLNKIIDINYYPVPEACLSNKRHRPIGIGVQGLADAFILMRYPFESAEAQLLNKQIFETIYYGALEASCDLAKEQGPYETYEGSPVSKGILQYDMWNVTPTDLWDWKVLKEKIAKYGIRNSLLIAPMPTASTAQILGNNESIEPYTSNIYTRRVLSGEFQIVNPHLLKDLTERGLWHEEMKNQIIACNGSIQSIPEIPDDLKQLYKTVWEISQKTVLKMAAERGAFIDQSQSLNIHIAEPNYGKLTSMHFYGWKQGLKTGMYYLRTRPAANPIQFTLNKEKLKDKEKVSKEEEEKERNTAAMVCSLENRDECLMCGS
Assay: RNR enzyme activity, rapid-fire mass spectrometry (RFMS) assay
Assay type: biochemical
Conditions: RNR 50 nM, CDP 5 μM, ATP 1 mM, 37° C., 45 min, compounds screened up to 50 μM, read-out: RF/MS IC50
Outline: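 Human RNR1:RNR2 (1:1, 50 nM) pre-incubated 15 min at room temperature with compound, then reacted with 5 μM CDP and 1 mM ATP, no NADPH, for 45 min at 37 °C. Stopped with 6% HCOOH; turnover read by rapid-fire mass spectrometry; Triapine and hydroxyurea as reference compounds.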

SMILES | IC50 [nM]
Cc1ccc(F)c([C@@H](C)[C@H](NS(=O)(=O)N2CCC(C)(C)CC2)c2n[nH]c(=O)o2)c1C [Example 113, N-((1S,2R)-2-(6-fluoro-2,3-dimethylphenyl)-1-(5-oxo-4,5-dihydro-1,3,4-oxadiazol-2-yl)propyl)-4,4-dimethyl piperidine-1-sulfonamide] | 100 to 1000
Cc1ccc(F)c([C@H](C)[C@H](NS(=O)(=O)N2CCC(C)(C)CC2)c2n[nH]c(=O)o2)c1C [Example 114, N-((1S,2S)-2-(6-fluoro-2,3-dimethylphenyl)-1-(5-oxo-4,5-dihydro-1,3,4-oxadiazol-2-yl)propyl)-4,4-dimethylpiperidine-1-sulfonamide] | 1000 to 10000
Cc1ccc(F)c([C@@H](C)[C@H](NS(=O)(=O)N2CCC(C)CC2)c2n[nH]c(=O)o2)c1C [Example 115, N-((1S,2R)-2-(6-fluoro-2,3-dimethylphenyl)-1-(5-oxo-4,5-dihydro-1,3,4-oxadiazol-2-yl)propyl)-4-methylpiperidine-1-sulfonamide] | 100 to 1000
Cc1ccc(F)c([C@H](C)[C@H](NS(=O)(=O)N2CCC(C)CC2)c2n[nH]c(=O)o2)c1C [Example 116, N-((1S,2S)-2-(6-fluoro-2,3-dimethylphenyl)-1-(5-oxo-4,5-dihydro-1,3,4-oxadiazol-2-yl)propyl)-4-methylpiperidine-1-sulfonamide] | 1000 to 10000
Cc1ccc(F)c([C@@H](C)[C@H](NS(=O)(=O)N2CCCC(C)(C)C2)c2n[nH]c(=O)o2)c1C [Example 117, N-((1S,2R)-2-(6-fluoro-2,3-dimethylphenyl)-1-(5-oxo-4,5-dihydro-1,3,4-oxadiazol-2-yl)propyl)-3,3-dimethylpiperidine-1-sulfonamide] | 1000 to 10000
CCN(CC1CC1)S(=O)(=O)N[C@H](c1n[nH]c(=O)o1)[C@H](C)c1c(F)ccc(C)c1C [Example 118] | 1000 to 10000
Cc1ccc(F)c([C@H](C)[C@H](NS(=O)(=O)N2CCCC(C)(C)C2)c2n[nH]c(=O)o2)c1C [Example 119, N-((1S,2S)-2-(6-fluoro-2,3-dimethylphenyl)-1-(5-oxo-4,5-dihydro-1,3,4-oxadiazol-2-yl)propyl)-3,3-dimethylpiperidine-1-sulfonamide] | 1000 to 10000
CCN(CC1CC1)S(=O)(=O)N[C@H](c1n[nH]c(=O)o1)[C@@H](C)c1c(F)ccc(C)c1C [Example 120] | 10000 to 100000
Cc1ccc(F)c([C@@H](C)[C@H](NS(=O)(=O)N2CC(C)CC(C)C2)c2n[nH]c(=O)o2)c1C (stereo partly drawn) [Example 121, N-((1S,2R)-2-(6-fluoro-2,3-dimethylphenyl)-1-(5-oxo-4,5-dihydro-1,3,4-oxadiazol-2-yl)propyl)-3,5-dimethylpiperidine-1-sulfonamide] | 1000 to 10000
Cc1ccc(F)c([C@H](C)[C@H](NS(=O)(=O)N2CC(C)CC(C)C2)c2n[nH]c(=O)o2)c1C (stereo partly drawn) [Example 122, N-((1S,2S)-2-(6-fluoro-2,3-dimethylphenyl)-1-(5-oxo-4,5-dihydro-1,3,4-oxadiazol-2-yl)propyl)-3,5-dimethylpiperidine-1-sulfonamide] | 1000 to 10000
Cc1ccc(F)c(C(C)[C@H](NS(=O)(=O)N2CCC(C#N)CC2)c2n[nH]c(=O)o2)c1C (stereo partly drawn) [Example 123, 4-cyano-N-((1S)-2-(6-fluoro-2,3-dimethylphenyl)-1-(5-oxo-4,5-dihydro-1,3,4-oxadiazol-2-yl)propyl)piperidine-1-sulfonamide] | 100 to 1000
Cc1ccc(F)c(C(C)[C@H](NS(=O)(=O)N2CCN(CC(F)F)CC2)c2n[nH]c(=O)o2)c1C (stereo partly drawn) [Example 124, 4-(2,2-difluoroethyl)-N-((1S)-2-(6-fluoro-2,3-dimethylphenyl)-1-(5-oxo-4,5-dihydro-1,3,4-oxadiazol-2-yl)propyl)piperazine-1-sulfonamide] | 1000 to 10000
COC1CCN(S(=O)(=O)N[C@H](c2n[nH]c(=O)o2)[C@H](C)c2c(F)ccc(C)c2C)CC1 [Example 125, N-((1S,2R)-2-(6-fluoro-2,3-dimethylphenyl)-1-(5-oxo-4,5-dihydro-1,3,4-oxadiazol-2-yl)propyl)-4-methoxypiperidine-1-sulfonamide] | 100 to 1000
COC1CCN(S(=O)(=O)N[C@H](c2n[nH]c(=O)o2)[C@@H](C)c2c(F)ccc(C)c2C)CC1 [Example 126, N-((1S,2S)-2-(6-fluoro-2,3-dimethylphenyl)-1-(5-oxo-4,5-dihydro-1,3,4-oxadiazol-2-yl)propyl)-4-methoxypiperidine-1-sulfonamide] | 1000 to 10000
COCC1CCN(S(=O)(=O)N[C@H](c2n[nH]c(=O)o2)[C@H](C)c2c(F)ccc(C)c2C)CC1 [Example 127, N-((1S,2R)-2-(6-fluoro-2,3-dimethylphenyl)-1-(5-oxo-4,5-dihydro-1,3,4-oxadiazol-2-yl)propyl)-4-(methoxymethyl)piperidine-1-sulfonamide] | 100 to 1000
COCC1CCN(S(=O)(=O)N[C@H](c2n[nH]c(=O)o2)[C@@H](C)c2c(F)ccc(C)c2C)CC1 [Example 128, N-((1S,2S)-2-(6-fluoro-2,3-dimethylphenyl)-1-(5-oxo-4,5-dihydro-1,3,4-oxadiazol-2-yl)propyl)-4-(methoxymethyl)piperidine-1-sulfonamide] | 1000 to 10000
COCC1CCCN(S(=O)(=O)N[C@H](c2n[nH]c(=O)o2)[C@H](C)c2c(F)ccc(C)c2C)C1 (stereo partly drawn) [Example 129, N-((1S,2R)-2-(6-fluoro-2,3-dimethylphenyl)-1-(5-oxo-4,5-dihydro-1,3,4-oxadiazol-2-yl)propyl)-3-(methoxymethyl)piperidine-1-sulfonamide] | 1000 to 10000
COCC1CCCN(S(=O)(=O)N[C@H](c2n[nH]c(=O)o2)[C@@H](C)c2c(F)ccc(C)c2C)C1 (stereo partly drawn) [Example 130, N-((1S,2S)-2-(6-fluoro-2,3-dimethylphenyl)-1-(5-oxo-4,5-dihydro-1,3,4-oxadiazol-2-yl)propyl)-3-(methoxymethyl)piperidine-1-sulfonamide] | 1000 to 10000
Cc1ccc(F)c([C@@H](C)[C@H](NS(=O)(=O)N2CCC(C(C)(C)C)CC2)c2n[nH]c(=O)o2)c1C [Example 131, 4-(tert-butyl)-N-((1S,2R)-2-(6-fluoro-2,3-dimethylphenyl)-1-(5-oxo-4,5-dihydro-1,3,4-oxadiazol-2-yl)propyl)piperidine-1-sulfonamide] | 100 to 1000
Cc1ccc(F)c([C@H](C)[C@H](NS(=O)(=O)N2CCC(C(C)(C)C)CC2)c2n[nH]c(=O)o2)c1C [Example 132, 4-(tert-butyl)-N-((1S,2S)-2-(6-fluoro-2,3-dimethylphenyl)-1-(5-oxo-4,5-dihydro-1,3,4-oxadiazol-2-yl)propyl)piperidine-1-sulfonamide] | 1000 to 10000
Cc1ccc(F)c([C@@H](C)[C@H](NS(=O)(=O)N2CCC3(CC2)OCCO3)c2n[nH]c(=O)o2)c1C [Example 133, N-((1S,2R)-2-(6-fluoro-2,3-dimethylphenyl)-1-(5-oxo-4,5-dihydro-1,3,4-oxadiazol-2-yl)propyl)-1,4-dioxa-8-azaspiro[4.5]decane-8-sulfonamide] | 10000 to 100000
Cc1ccc(F)c([C@H](C)[C@H](NS(=O)(=O)N2CCC3(CC2)OCCO3)c2n[nH]c(=O)o2)c1C [Example 134, N-((1S,2S)-2-(6-fluoro-2,3-dimethylphenyl)-1-(5-oxo-4,5-dihydro-1,3,4-oxadiazol-2-yl)propyl)-1,4-dioxa-8-azaspiro[4.5]decane-8-sulfonamide] | 100 to 1000
Cc1ccc(F)c([C@@H](C)[C@H](NS(=O)(=O)N2CCc3ccccc3C2)c2n[nH]c(=O)o2)c1C [Example 135, N-((1S,2R)-2-(6-fluoro-2,3-dimethylphenyl)-1-(5-oxo-4,5-dihydro-1,3,4-oxadiazol-2-yl)propyl)-3,4-dihydroisoquinoline-2(1H)-sulfonamide] | 100 to 1000
Cc1ccc(F)c([C@H](C)[C@H](NS(=O)(=O)N2CCc3ccccc3C2)c2n[nH]c(=O)o2)c1C [Example 136, N-((1S,2S)-2-(6-fluoro-2,3-dimethylphenyl)-1-(5-oxo-4,5-dihydro-1,3,4-oxadiazol-2-yl)propyl)-3,4-dihydroisoquinoline-2(1H)-sulfonamide] | 1000 to 10000
Cc1ccc(F)c(C(C)[C@H](NS(=O)(=O)N2CCC(F)(F)C2)c2n[nH]c(=O)o2)c1C (stereo partly drawn) [Example 137, 3,3-difluoro-N-((1S)-2-(6-fluoro-2,3-dimethylphenyl)-1-(5-oxo-4,5-dihydro-1,3,4-oxadiazol-2-yl)propyl)pyrrolidine-1-sulfonamide] | 10000 to 100000
Cc1ccc(F)c(C(C)[C@H](NS(=O)(=O)N2CCCCC2)c2n[nH]c(=O)o2)c1C (stereo partly drawn) [Example 138, N-((1S)-2-(6-fluoro-2,3-dimethylphenyl)-1-(5-oxo-4,5-dihydro-1,3,4-oxadiazol-2-yl)propyl)piperidine-1-sulfonamide] | 100 to 1000
